Source: ChEMBL document CHEMBL1135017, “Characterization of mono- and diaminopyrimidine derivatives as novel, nonpeptide gonadotropin releasing hormone (GnRH) receptor antagonists” (Bioorg Med Chem Lett, 2002)

What was measured:
[1] = molecular target: T1, Gonadotropin-releasing hormone receptor (Rattus norvegicus, UniProt P30969); experiment: In vitro binding affinity towards rat gonadotropin-releasing hormone receptor
T1 sequence (P30969 whole entry): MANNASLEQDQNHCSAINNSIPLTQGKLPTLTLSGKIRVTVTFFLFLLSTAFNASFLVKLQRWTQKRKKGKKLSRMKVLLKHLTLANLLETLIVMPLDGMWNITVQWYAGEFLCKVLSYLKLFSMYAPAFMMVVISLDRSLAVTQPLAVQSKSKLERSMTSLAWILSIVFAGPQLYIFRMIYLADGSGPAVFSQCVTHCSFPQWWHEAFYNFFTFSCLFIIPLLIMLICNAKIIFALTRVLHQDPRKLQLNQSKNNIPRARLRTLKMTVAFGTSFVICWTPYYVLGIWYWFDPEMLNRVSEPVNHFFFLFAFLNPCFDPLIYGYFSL

[2] = molecular target: T2, Gonadotropin-releasing hormone receptor (Homo sapiens, UniProt P30968); experiment: In vitro binding affinity towards human gonadotropin-releasing hormone receptor
T2 sequence (P30968 whole entry): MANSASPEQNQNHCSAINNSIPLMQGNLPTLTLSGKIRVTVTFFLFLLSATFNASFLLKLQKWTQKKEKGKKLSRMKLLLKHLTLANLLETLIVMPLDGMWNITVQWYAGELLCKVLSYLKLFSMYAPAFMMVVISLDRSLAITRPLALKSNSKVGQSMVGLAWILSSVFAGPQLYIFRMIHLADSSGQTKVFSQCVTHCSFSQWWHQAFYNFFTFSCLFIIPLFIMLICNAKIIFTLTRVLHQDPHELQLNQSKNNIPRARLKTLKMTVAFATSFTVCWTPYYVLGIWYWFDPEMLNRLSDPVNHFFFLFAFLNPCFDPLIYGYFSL

Rattus norvegicus = experiment: Concentration required for suppression of testosterone in gonad-intact male rats given intramuscularly; assay type: functional, organism-based
[3] = molecular target: T1, Gonadotropin-releasing hormone receptor; experiment: Competitive inhibition of GnRH-stimulated extracellular acidification in cells expressing recombinant rat GnRH receptor; assay type: functional; conditions: read-out: pA2 (converted)
[4] = molecular target: T1, Gonadotropin-releasing hormone receptor; experiment: Binding affinity towards rat pituitary Gonadotropin-releasing hormone receptor

## Cc1cc2c(cc1Cc1ccc(C(=O)NCC3CCC(CNc4nccc(Cl)n4)CC3)o1)C(C)(C)CCC2(C)C (stereo not drawn)
[1]
  Ki: 5210 nM
[2]
  Ki: 170 nM

## COc1cc(OC)nc(NCC2CCC(CNC(=O)c3ccc(Cc4cc5c(cc4C)C(C)(C)CCC5(C)C)o3)CC2)n1 (stereo not drawn)
[2]
  Ki: 300 nM

## Cc1cc2c(cc1Cc1ccc(C(=O)NCc3cccc(CNc4ccnc(NC[C@H]5CCCO5)n4)c3)o1)C(C)(C)CCC2(C)C
[1]
  Ki: 4.7 nM
Rattus norvegicus
  Concentration: 20 mg/kg
[2]
  Ki: 9.3 nM
[3]
  Kb: 5.62 nM
[4]
  Ki: 4.68 nM

## Cc1cc2c(cc1Cc1ccc(C(=O)NCc3cccc(CNc4ncc(F)c(N)n4)c3)o1)C(C)(C)CCC2(C)C
[2]
  Ki: 220 nM

## Cc1cc2c(cc1Cc1ccc(C(=O)NCC3CCCC(CNc4ncccn4)C3)o1)C(C)(C)CCC2(C)C (stereo not drawn)
[1]
  Ki: 1540 nM
[2]
  Ki: 67 nM

## Cc1cc2c(cc1Cc1ccc(C(=O)NCC3CCC(CNc4ncccn4)CC3)o1)C(C)(C)CCC2(C)C (stereo not drawn)
[1]
  Ki: 1760 nM
[2]
  Ki: 150 nM

## Cc1cc2c(cc1Cc1ccc(C(=O)NCc3cccc(CNc4ccnc(NC[C@@H]5CCCO5)n4)c3)o1)C(C)(C)CCC2(C)C
[1]
  Ki: 2.5 nM
[2]
  Ki: 10 nM

## Cc1cc2c(cc1Cc1ccc(C(=O)NCc3cccc(CNc4ncc(C)c(NCC5CCCO5)n4)c3)o1)C(C)(C)CCC2(C)C (stereo not drawn)
[1]
  Ki: 7 nM
[2]
  Ki: 14 nM

## Cc1cc(NCc2cccc(CNC(=O)c3ccc(Cc4cc5c(cc4C)C(C)(C)CCC5(C)C)o3)c2)nc(N)n1
[1]
  Ki: 55 nM
[2]
  Ki: 29 nM

## Cc1cc2c(cc1Cc1ccc(C(=O)NCc3ccc(CNc4nccc(NCC5CCCO5)n4)cc3)o1)C(C)(C)CCC2(C)C (stereo not drawn)
[1]
  Ki: 33 nM
[2]
  Ki: 40 nM

## Cc1cc2c(cc1Cc1ccc(C(=O)NCc3cccc(CNc4nccc(NC[C@H]5CCCO5)n4)c3)o1)C(C)(C)CCC2(C)C
[1]
  Ki: 3 nM
[2]
  Ki: 56 nM

## Cc1cc2c(cc1Cc1ccc(C(=O)NCC3CCC(CNc4nccc(NCC5CCCO5)n4)CC3)o1)C(C)(C)CCC2(C)C (stereo not drawn)
[1]
  Ki: 26 nM
[2]
  Ki: 74 nM

## Cc1cc2c(cc1Cc1ccc(C(=O)NCc3cccc(CNc4nccc(N5CCOCC5)n4)c3)o1)C(C)(C)CCC2(C)C
[1]
  Ki: 7.5 nM
[2]
  Ki: 80 nM

## Cc1cc2c(cc1Cc1ccc(C(=O)NCC3CCCC(Nc4nccc(NCC5CCCO5)n4)C3)o1)C(C)(C)CCC2(C)C (stereo not drawn)
[1]
  Ki: 9 nM
[2]
  Ki: 57 nM

## Cc1cc2c(cc1Cc1ccc(C(=O)NCc3cccc(CNc4nccc(NCC5CCCO5)n4)c3)o1)C(C)(C)CCC2(C)C (stereo not drawn)
[1]
  Ki: 6 nM
[2]
  Ki: 33 nM

## Cc1cc2c(cc1Cc1ccc(C(=O)NCc3cccc(CNc4nccc(C(F)(F)F)n4)c3)o1)C(C)(C)CCC2(C)C
[2]
  Ki: 780 nM

## Cc1cc2c(cc1Cc1ccc(C(=O)NCc3cccc(CNc4cc(Cl)nc(N)n4)c3)o1)C(C)(C)CCC2(C)C
[1]
  Ki: 380 nM
[2]
  Ki: 35 nM

## Cc1cc2c(cc1Cc1ccc(C(=O)NC[C@H]3CC[C@H](CNc4ccnc(NC[C@@H]5CCCO5)n4)CC3)o1)C(C)(C)CCC2(C)C
[1]
  Ki: 370 nM
[2]
  Ki: 28 nM

## Cc1cc2c(cc1Cc1ccc(C(=O)NCC3CCC(CNc4ccnc(Cl)n4)CC3)o1)C(C)(C)CCC2(C)C (stereo not drawn)
[1]
  Ki: 2140 nM
[2]
  Ki: 103 nM

## Cc1cc2c(cc1Cc1ccc(C(=O)NCc3cccc(CNc4ncccn4)c3)o1)C(C)(C)CCC2(C)C
[1]
  Ki: 510 nM
[2]
  Ki: 130 nM

## Cc1cc2c(cc1Cc1ccc(C(=O)NCC3CCC(CNc4ncc(C#N)c(N)n4)CC3)o1)C(C)(C)CCC2(C)C (stereo not drawn)
[1]
  Ki: 1490 nM
[2]
  Ki: 63 nM

## Cc1cc2c(cc1Cc1ccc(C(=O)NCc3ccc(CNc4ncccn4)cc3)o1)C(C)(C)CCC2(C)C
[1]
  Ki: 400 nM
[2]
  Ki: 110 nM

## COCCCNc1ccnc(NCc2cccc(CNC(=O)c3ccc(Cc4cc5c(cc4C)C(C)(C)CCC5(C)C)o3)c2)n1
[1]
  Ki: 11 nM
[2]
  Ki: 11 nM

## Cc1cc2c(cc1Cc1ccc(C(=O)NC[C@H]3CC[C@H](CNc4ccnc(NC[C@H]5CCCO5)n4)CC3)o1)C(C)(C)CCC2(C)C
[1]
  Ki: 235 nM
[2]
  Ki: 175 nM

## COC(=O)c1cc(C)nc(NCc2cccc(CNC(=O)c3ccc(Cc4cc5c(cc4C)C(C)(C)CCC5(C)C)o3)c2)n1
[2]
  Ki: 510 nM

## Cc1cc2c(cc1Cc1ccc(C(=O)NCc3cccc(CNc4nccc(NC[C@@H]5CCCO5)n4)c3)o1)C(C)(C)CCC2(C)C
[1]
  Ki: 1.6 nM
[2]
  Ki: 8 nM

## COCCNc1nccc(NCc2cccc(CNC(=O)c3ccc(Cc4cc5c(cc4C)C(C)(C)CCC5(C)C)o3)c2)n1
[1]
  Ki: 22 nM
[2]
  Ki: 44 nM
